Laboratory results published in ChEMBL document CHEMBL6109055, “Naphtho[1,2-b][1,4]diazepinedione-Based P2X4 Receptor Antagonists from Structure-Activity Relationship Studies toward PET Tracer Development” (J Med Chem, 2025).

What was measured:
[1] = tested on: THP-1; assay: Inhibition of NLRP3 inflammasome activation in LPS-activated human THP-1 cells assessed as inhibition of LPS/ATP induced IL-1beta secretion at 100 nM preincubated with PMA for 24 hrs followed further stimulated with LPS for 3 hrs and further incubated with compound and ATP for 30 mins by ELISA method; assay type: cell-based
[2] = Plasma protein binding in unknown origin; assay type: ADME, cell-free; conditions: read-out: PPB (converted)
[3] = Metabolic stability in C57BL/6 mouse liver microsomes assessed as remaining parent compound by UPLC-UV/MS analysis; assay type: ADME, Microsome
[4] = target: P2X purinoceptor 4 (Homo sapiens, UniProt Q99571); assay: Antagonist activity at human P2X4 receptor overexpressed in human 1321N1 cells assessed as inhibition of ATP-induced calcium responses by Fluo-4 AM/Ca2+ Flux assay; assay type: cell-based
Chain of P2X purinoceptor 4 (Q99571 whole entry): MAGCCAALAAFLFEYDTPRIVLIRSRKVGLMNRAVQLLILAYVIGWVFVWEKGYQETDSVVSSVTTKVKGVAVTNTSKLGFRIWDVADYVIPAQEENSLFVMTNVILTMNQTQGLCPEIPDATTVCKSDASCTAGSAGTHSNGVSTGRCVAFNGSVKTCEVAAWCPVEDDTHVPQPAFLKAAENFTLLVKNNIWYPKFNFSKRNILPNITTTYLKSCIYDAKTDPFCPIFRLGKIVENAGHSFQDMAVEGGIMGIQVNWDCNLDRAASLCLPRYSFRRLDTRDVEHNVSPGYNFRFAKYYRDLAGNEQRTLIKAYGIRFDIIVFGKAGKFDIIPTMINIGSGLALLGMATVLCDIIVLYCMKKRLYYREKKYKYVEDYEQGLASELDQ

[5] = Lipophilicity, logD of compound in n-octanol and buffer at pH 7.4 by LC-MS analysis; assay type: physicochemical

SMILES	IC50 ([4]; read-out: IC50) [µM]	further results
Cc1cc(F)ccc1S(=O)(=O)Nc1ccc(N2C(=O)CC(=O)Nc3c2ccc2ccccc32)cc1	–	inhibition [1]: Active; Compund More Potent Than Bay1797; fraction unbound [2]: < 0.02; Stability [3]: 93%
O=C1CC(=O)N(c2ccc(NS(=O)(=O)c3ccccc3Cl)cc2)c2ccc3ccccc3c2N1	0.445	–
O=C1CC(=O)N(c2ccc(NS(=O)(=O)c3cccnc3[N+](=O)[O-])cc2)c2ccc3ccccc3c2N1	1	–
O=C1CC(=O)N(c2ccc(NC(=O)c3cccnc3Cl)cc2)c2ccc3ccccc3c2N1	0.78	–
O=C1CC(=O)N(c2ccc(NS(=O)(=O)Cc3ccc(F)cc3Cl)cc2)c2ccc3ccccc3c2N1	0.023	logD [5]: 3.71; fraction unbound [2]: < 0.02; Stability [3]: 58%
O=C1CC(=O)N(c2ccc(NS(=O)(=O)Cc3ccc(B(O)O)cc3Cl)cc2)c2ccc3ccccc3c2N1	0.295	–
CNCC[C@H](Oc1cccc2ccccc12)c1cccs1 [DULOXETINE]	5.88	–
O=C1CC(=O)N(c2ccc(NS(=O)(=O)c3cc(F)ccc3Cl)cc2)c2ccc3ccccc3c2N1	0.135	logD [5]: 3.25; fraction unbound [2]: < 0.02; Stability [3]: 98%
O=C1CC(=O)N(c2ccc(NS(=O)(=O)C3CCCCC3)cc2)c2ccc3ccccc3c2N1	2.58	–
O=C1CC(=O)N(c2ccc(NC(=O)c3cccnc3[N+](=O)[O-])cc2)c2ccc3ccccc3c2N1	2.28	–
Cc1cc(Br)ccc1CS(=O)(=O)Nc1ccc(N2C(=O)CC(=O)Nc3c2ccc2ccccc32)cc1	0.097	–
Cc1cc(F)ccc1CS(=O)(=O)Nc1ccc(N2C(=O)CC(=O)Nc3c2ccc2ccccc32)cn1	0.014	logD [5]: 2.59; fraction unbound [2]: 0.03; Stability [3]: 67%
Cc1ccc(Cl)c(S(=O)(=O)Nc2ccc(N3C(=O)CC(=O)Nc4c3ccc3ccccc43)cc2)c1	0.373	–
O=C1CC(=O)N(c2ccccc2)c2ccc3ccccc3c2N1	9.28	–
O=C1CC(=O)N(c2ccc(NS(=O)(=O)c3ccccc3F)cc2)c2ccc3ccccc3c2N1	1.17	–
Cc1cccc(Cl)c1S(=O)(=O)Nc1ccc(N2C(=O)CC(=O)Nc3c2ccc2ccccc32)cc1	0.385	–
Cc1ccccc1S(=O)(=O)Nc1ccc(N2C(=O)CC(=O)Nc3c2ccc2ccccc32)cc1	0.115	–

SMILES	IC50 ([4]; read-out: IC50) [µM]	further results
O=C1CC(=O)N(c2ccc(NS(=O)(=O)Cc3c(F)cccc3Cl)cc2)c2ccc3ccccc3c2N1	0.108	–
COc1cc(Br)ccc1S(=O)(=O)Nc1ccc(N2C(=O)CC(=O)Nc3c2ccc2ccccc32)cc1	0.344	–
O=C1CC(=O)N(c2ccc(NS(=O)(=O)c3ccccc3Br)cc2)c2ccc3ccccc3c2N1	0.24	–
O=C1CC(=O)N(c2ccc(NS(=O)(=O)Cc3ccc(F)cc3Br)cc2)c2ccc3ccccc3c2N1	0.076	–
O=C1CC(=O)N(c2ccc(NS(=O)(=O)c3ccc(C(F)(F)F)cc3Cl)cc2)c2ccc3ccccc3c2N1	3.39	–
O=C1CC(=O)N(c2ccc(NS(=O)(=O)Cc3ccccc3)cc2)c2ccc3ccccc3c2N1	0.191	–
O=C1CC(=O)N(c2ccc(NS(=O)(=O)c3cc(Br)ccc3Cl)cc2)c2ccc3ccccc3c2N1	0.175	–
O=C1CC(=O)N(c2ccc(NS(=O)(=O)Cc3ccc(Br)cc3Cl)cc2)c2ccc3ccccc3c2N1	0.531	–
O=C1CC(=O)N(c2ccc(NC(=O)c3ccccc3)cc2)c2ccc3ccccc3c2N1	0.585	–
O=C1CC(=O)N(c2ccc(NS(=O)(=O)c3cccnc3F)cc2)c2ccc3ccccc3c2N1	1.12	IC50 ([4]; read-out: pIC50 (converted)): 1.1 µM; logD [5]: 1.78; fraction unbound [2]: 0.06; Stability [3]: 95%
Nc1ccc(N2C(=O)CC(=O)Nc3c2ccc2ccccc32)nc1	6.46	–
O=C1CC(=O)N(c2ccc(NS(=O)(=O)c3c(Cl)cccc3Cl)cc2)c2ccc3ccccc3c2N1	0.65	–
O=C1CC(=O)N(c2ccc(NS(=O)(=O)c3cc(C(F)(F)F)ccc3Cl)cc2)c2ccc3ccccc3c2N1	2.73	–
O=C1CC(=O)N(c2ccc(NS(=O)(=O)Cc3ccccc3Cl)cc2)c2ccc3ccccc3c2N1	–	logD [5]: 3.39; fraction unbound [2]: < 0.02; Stability [3]: 71%
Cc1cc(F)ccc1CS(=O)(=O)Nc1ccc(N2C(=O)CC(=O)Nc3c2ccc2ccccc32)cc1	–	IC50 ([4]; read-out: pIC50 (converted)): 0.00759 µM; inhibition [1]: Active; Compund More Potent Than Bay1797; fraction unbound [2]: < 0.02; Stability [3]: 64%
O=C1CC(=O)N(c2ccc(NS(=O)(=O)c3ccc(F)cc3Cl)cc2)c2ccc3ccccc3c2N1	0.128	logD [5]: 3.55; fraction unbound [2]: < 0.02; Stability [3]: 93%
O=C1CC(=O)N(c2ccc(NS(=O)(=O)Cc3ccc(F)cc3)cc2)c2ccc3ccccc3c2N1	0.088	–
